# Test results from patent US7807673B2, “2-pyrimidinyl pyrazolopyridine ErbB kinase inhibitors” (GlaxoSmithKline LLC, priority 2005, dated 2010).
# Tests used:
# ErbB2 or EGFR = target: T1, ErbB2 or EGFR; assay: ErbB enzyme substrate phosphorylation assay (HTRF), Method B (enzyme pre-incubated with compound 1 hour); assay type: biochemical; conditions: Table 1, enzyme Method B: enzyme mix incubated with compound 1 hour at 20° C., reaction started with substrate mix; class over ErbB2 or EGFR
# T1 construct: enzymes purified from a baculovirus expression system
# Outline: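 Baculovirus-expressed kinase (0.8 nM EGFR or 10 nM ErbB2 in enzyme mix) phosphorylated biotinylated Peptide C (0.8 µM in substrate mix) with 20 µM ATP in substrate mix, MOPS pH 7.5, MnCl2, 90 min at 20 °C. Method A started with enzyme; Method B pre-incubated enzyme with compound 1 h at 20 °C. HTRF read-out; IC50 from 12-point curve (0.00027–47.6 µM), reported as pIC50.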
# [1] = system: BT474 and HN5 tumor cell lines; assay: Celltiter Glo growth inhibition assay (cellular Method B); assay type: cell-based; conditions: Homo sapiens, BT-474, 72 h; Table 2, Method B Celltiter Glo, 3 days; class over BT474 and HN5;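 note: class counts the more potent of the two cell lines (BT474 or HN5)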
# Outline: (§1)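 BT474, HN5 and Colo205 cells were each grown in their own 10% FBS medium, then exposed to compound for 3 days at 37 °C with 0.3% final DMSO. Growth was read by CellTiter-Glo luminescence as percent inhibition versus vehicle, and IC50 was interpolated by nonlinear regression.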
# Colo205 tumor cell lines = assay: as above; assay type: cell-based; conditions: Homo sapiens, COLO 205, 72 h, Table 3, Method B Celltiter Glo, 3 days
# Outline: as §1
IC50 [1],IC50 (Colo205 tumor cell lines),Structure (SMILES),Activity (Method) (ErbB2 or EGFR)
100 to 1000 nM,100 to 1000 nM,"COc1ccc(-c2nn3ccccc3c2-c2ccnc(Nc3ccc4c(c3)CC(N(C)C)C4)n2)cc1NC(=O)Cc1cccs1 (stereo not drawn) [Example 48, N-{5-[3-(2-{[2-(Dimethylamino)-2,3-dihydro-1H-inden-5-yl]amino}pyrimidin-4-yl)pyrazolo[1,5-a]pyridin-2-yl]-2-methoxyphenyl}-2-(2-thienyl)acetamide]",+ (B) (no pIC50 measurement greater than 6 against either ErbB2 or EGFR)
> 1000 nM,100 to 1000 nM,"COc1ccc(-c2nn3ccccc3c2-c2ccnc(Nc3ccc4c(c3)CN(C)CC4)n2)cc1NC(=O)Cc1cccs1 [Example 49, N-[2-Methoxy-5-(3-{2-[(2-methyl-1,2,3,4-tetrahydroisoquinolin-7-yl)amino]pyrimidin-4-yl}pyrazolo[1,5-a]pyridin-2-yl)phenyl]-2-(2-thienyl)acetamide]",+ (B) (no pIC50 measurement greater than 6 against either ErbB2 or EGFR)
100 to 1000 nM,100 to 1000 nM,"CN1CCc2ccc(Nc3ncc(F)c(-c4c(-c5cccc(NC(=O)c6c(F)cccc6F)c5)nn5ccccc45)n3)cc2C1 [Example 51, 2,6-Difluoro-N-[3-(3-{5-fluoro-2-[(2-methyl-1,2,3,4-tetrahydro-7-isoquinolinyl)amino]-4-pyrimidinyl}pyrazolo[1,5-a]pyridin-2-yl)phenyl]benzamide]",+++ (B) (at least one pIC50 measurement of greater than 7 against either ErbB2 or EGFR)
> 1000 nM,> 1000 nM,"Cc1ccc(-c2nn3ccccc3c2-c2ccnc(Nc3cccc(CN4CCCC4)c3)n2)cc1NC(=O)Cc1cccs1 [Example 56, N-{2-Methyl-5-[3-(2-{[3-(1-pyrrolidinylmethyl)phenyl]amino}-4-pyrimidinyl)pyrazolo[1,5-a]pyridin-2-yl]phenyl}-2-(2-thienyl)acetamide]",++ (B) (at least one pIC50 measurement greater than 6 against either ErbB2 or EGFR but no measurement greater than pIC50 of 7)
> 1000 nM,> 1000 nM,"Cc1ccc(-c2nn3ccccc3c2-c2ccnc(Nc3cc(OCCN(C)C)ccc3C)n2)cc1NC(=O)Cc1cccs1 [Example 57, N-[5-(3-{2-[(5-{[2-(Dimethylamino)ethyl]oxy}-2-methylphenyl)amino]-4-pyrimidinyl}pyrazolo[1,5-a]pyridin-2-yl)-2-methylphenyl]-2-(2-thienyl)acetamide]",++ (B) (at least one pIC50 measurement greater than 6 against either ErbB2 or EGFR but no measurement greater than pIC50 of 7)
100 to 1000 nM,100 to 1000 nM,"Cc1ccc(-c2nn3ccccc3c2-c2ccnc(Nc3cccc(OCCN(C)C)c3)n2)cc1NC(=O)Cc1cccs1 [Example 58, N-[5-(3-{2-[(3-{[2-(Dimethylamino)ethyl]oxy}phenyl)amino]-4-pyrimidinyl}pyrazolo[1,5-a]pyridin-2-yl)-2-methylphenyl]-2-(2-thienyl)acetamide]",++ (B) (at least one pIC50 measurement greater than 6 against either ErbB2 or EGFR but no measurement greater than pIC50 of 7)
100 to 1000 nM,> 1000 nM,"Cc1ccc(-c2nn3ccccc3c2-c2ccnc(Nc3ccc4c(c3)CN(C)CC4)n2)cc1NC(=O)Cc1cccs1 [Example 59, N-[2-Methyl-5-(3-{2-[(2-methyl-1,2,3,4-tetrahydro-7-isoquinolinyl)amino]-4-pyrimidinyl}pyrazolo[1,5-a]pyridin-2-yl)phenyl]-2-(2-thienyl)acetamide]",++ (B) (at least one pIC50 measurement greater than 6 against either ErbB2 or EGFR but no measurement greater than pIC50 of 7)
100 to 1000 nM,100 to 1000 nM,"O=C(Cc1cccs1)Nc1cc(-c2nn3ccccc3c2-c2ccnc(Nc3cccc(CN4CCCC4)c3)n2)ccc1F [Example 61, N-{2-Fluoro-5-[3-(2-{[3-(1-pyrrolidinylmethyl)phenyl]amino}-4-pyrimidinyl)pyrazolo[1,5-a]pyridin-2-yl]phenyl}-2-(2-thienyl)acetamide]",++ (B) (at least one pIC50 measurement greater than 6 against either ErbB2 or EGFR but no measurement greater than pIC50 of 7)
